{"source": "patent US12226433B2", "about": "“Treatment of irritable bowel syndrome with molybdenum” (The Johns Hopkins University, priority 2018, dated 2025)", "key": {"Desulfovibrio": {"test_system": "Desulfovibrio", "assay": "Stool microbiome examined by 16S rRNA sequencing before and after molybdate treatment", "type": "in vivo, mouse", "conditions": "molybdate treated control and IBS groups; stool before and after 7 days of cecal infusion; not reduced in saline treated groups", "protocol": "(§1) IBS mice were generated by colorectal infusion of 0.5% acetic acid (20 μl) at postnatal day 10. The mice were then allowed to grow up until adult. The adult IBS and control mice were undergone a surgery to insert a catheter into the cecum. The catheter made from PE10 tubing with 8 cm long. It was insert into cecum about 0.5 cm and then tunneled to the back of the mouse after sutured on the cecum wall ensuring no cecum content leaking. Then, a pair of electrodes were inserted into the external oblique (abdominal) muscle for pain sensitivity test. The mice received 0.2 ml sodium molybdate (10 mg/ml) through cecal infusion starting on the day after surgery for 7 days. One day after the last infusion, a visceral motor reflex (VMR) response to colorectal distention (CRD) was conducted to assess the pain sensitivity. A balloon was inserted into colorectum through the anus for CRD. The VMR is measured using an electromyographic (EMG) recording that response to CRD with 15, 30, 50 and 70 mmHg. To assess the microbiota, stool were collected before and after the molybdate treatment. Microbiome were examined by 16S rRNA sequencing."}, "IBS mouse model": {"test_system": "IBS mouse model", "assay": "Visceral motor reflex (VMR) response to colorectal distention (CRD), pain sensitivity in IBS mouse model", "type": "in vivo", "conditions": "0.2 ml sodium molybdate (10 mg/ml) cecal infusion for 7 days; for pain sensitivity (hyperalgesia) assessed by VMR response to CRD: IBS mice, CRD 15, 30, 50 and 70 mmHg, vs IBS-vehicle, P<0.05", "protocol": "as §1"}}, "data": [{"smiles": "[Na+].[Na+].[O]=[Mo](=[O])([O-])[O-]", "note": "[sodium molybdate]", "values": [{"measurement": "sulfate-reducing bacteria Desulfovibrio in stool (16S rRNA sequencing)", "setting": "Desulfovibrio", "value": "reduced"}, {"measurement": "pain sensitivity (hyperalgesia) assessed by VMR response to CRD", "setting": "IBS mouse model", "value": "reduced hyperalgesia"}, {"measurement": "pain sensitivity (hyperalgesia) assessed by VMR response to CRD", "setting": "IBS mouse model; listed as molybdate", "value": "significantly reduced"}, {"measurement": "pain sensitivity assessed by VMR response to CRD", "setting": "IBS mouse model; control mice, molybdate vs saline treated", "value": "no significant different"}]}]}
